Laboratory results published in patent US20240401027A1, “METHOD FOR IMPROVED INTRON TAGGING AND AUTOMATED CLONE RECOGNITION” (PROXYGEN GMBH, priority 2021, published 2024).

Tested on: pool of HAP1 cells expressing GFP-tagged proteins
Assay: Live cell imaging of GFP-tagged HAP1 cell pool and arrayed clones: compound effects on levels and localization of tagged proteins
Format: cell-based, human
Protocol: Live cell imaging was performed on a PerkinElmer Opera Phenix microscope with excitation laser 488 nm, and emission filter 500-550 nm, 700 ms.
Identification of the expressed sgRNAs by in situ sequencing was performed by following and modifying published protocols, see, e.g., Feldman (2019) loc. cit; Ke (2013) Nat Methods 10, 857-60; and Larsson (2010) Nat Methods 7, 395-7.
Reverse transcription mix (1× RevertAid RT buffer, 250 µM dNTPs, 0.2 mg/mL BSA, 1 µM RT primer, 0.8 U/mL Ribolock RNase inhibitor, and 4.8 U/mL RevertAid H minus reverse transcriptase) was added to the sample and incubated for 16 hours at 37° C. Following reverse transcription, cells were washed 5 times with PBS-T and post-fixed with 3% paraformaldehyde and 0.1% glutaraldehyde for 30 minutes at room temperature and washed 5 times with PBS-T. Cells were incubated in a padlock probe and extension-ligation reaction mix (1× Ampligase buffer, 0.4 U/mL RNase H, 0.2 mg/mL BSA, 100 nM padlock probe, 0.02 U/mL KlenTaq polymerase, 0.5 U/mL Ampligase and […]) for 5 minutes at 37° C. and 90 minutes at 45° C., and then washed 2 times with PBS-T. Circularized padlocks were amplified with rolling circle amplification mix (1× Phi29 buffer, 250 µM dNTPs, 0.2 mg/mL BSA, 5% glycerol, and 1 U/mL Phi29 DNA polymerase) at 30° C. for 4 hours. Rolling circle amplicons were prepared for sequencing by hybridizing a mix containing sequencing primer oSBS_CROP-seq (1 µM primer in 2×SSC+10% formamide) for 30 minutes at room temperature. Barcodes were read out using sequencing-by-synthesis reagents from the Illumina NextSeq 500/550 kit v2 (Illumina 15057934). First, samples were washed with incorporation buffer (NextSeq 500/550 buffer cartridge, position 35) and incubated for 4 minutes in incorporation mix (NextSeq 500/550 reagent cartridge, position 31) at 60° C. Samples were then washed with incorporation buffer (4 washes, 60° C. for 4 minutes at the last wash) and placed in scan mix (NextSeq 500/550 reagent cartridge, position 30) for imaging. Imaging was performed on a PerkinElmer Opera Phenix microscope with excitation laser: 561 nm, emission filter: 570-630, 500 ms; excitation laser: 640 nm, emission filter: 650-760 nm, 500 ms using a 63× water immersion objective, confocal mode. Based were detected as follows: Base T: signal in 561 channel; Base C: signal in 640 channel, Base A: (weaker) signal in both channels, Base G: no signal. Following each imaging cycle, samples were washed with the cleavage mix (NextSeq 500/550 reagent cartridge, position 29) once followed by incubation with cleavage mix for 4 minutes at 60° C. to remove dye terminators. Samples were washed 5 times with incorporation buffer before starting the next cycle.
It was reasoned that the highly diverse pool of cells expressing GFP-tagged proteins can be used to identify compounds that change protein levels or localization of any of the tagged proteins. […] The application of the CROP-seq vector16 that expresses the sgRNA sequence in a polyadenylated mRNA transcript enables the cell-specific identification of the targeted intron by situ sequencing (see also Feldman, D. et al. Cell 179, 787-799 e17 (2019), Ke, R. et al. Nat Methods 10, 857-60 (2013), Larsson, C. et al. Nat Methods 7, 395-7 (2010). 17-19). To map targeted introns, the cell pool was fixed and a modified in situ sequencing protocol was developed to identify the sgRNA sequence integrated into individual cells in the pool. Based on the library diversity, eight cycles of nucleotide incorporation and imaging are sufficient to unambiguously assign sgRNA sequences (FIG. 6c). Application of this protocol to the cell pool confirmed that in clones with drastic loss of signal GFP was indeed targeted to BRD4 (FIG. 6d).
Therefore, the cell pool was treated with methotrexate (MTX), an antimetabolite impairing DNA and RNA synthesis and causing DNA damage by inhibiting tetrahydrofolate metabolism. […]

[1] = dBET6-treated cell pool, FIG. 6e

Compound | AKAP8 localization [1] | FUBP3 localization [1] | MEAF1 localization [1] | SFPQ localization [1] | UNG nuclear intensity [1] | DR1 nuclear signal (1 µM methotrexate (FIG. 10)) | GFP-tagged RPA1 localization (1 µM methotrexate (FIG. 10)) | GFP-tagged RPA2 localization (1 µM methotrexate (FIG. 10)) | NUDT21 nuclear signal (1 µM methotrexate (FIG. 10)) | PADI1 protein (1 µM methotrexate (FIG. 10)) | RUVBL1 protein (1 µM methotrexate (FIG. 10)) | TPI1 nuclear signal (1 µM methotrexate (FIG. 10)) | nuclear DNMT1 foci (1 µM methotrexate (FIG. 10)) | GFP-tagged ACLY localization (24 h MTX treatment, 1 µM methotrexate (FIG. 10))
Cc1sc2c(c1C)C(c1ccc(Cl)cc1)=N[C@@H](CC(=O)NCCCCCCCCNC(=O)COc1cccc3c1C(=O)N(C1CCC(=O)NC1=O)C3=O)c1nnc(C)n1-2 (some centres unmarked) [dBET6] | gain of nuclear foci | loss of subnuclear localization patterns | loss of subnuclear localization patterns | gain of nuclear foci | loss of nuclear intensity | – | – | – | – | – | – | – | – | –
CN(Cc1cnc2nc(N)nc(N)c2n1)c1ccc(C(=O)N[C@@H](CCC(=O)O)C(=O)O)cc1 [methotrexate] | – | – | – | – | – | gain of nuclear signal | formation of nuclear foci | formation of nuclear foci | gain of nuclear signal | decreases | decreases | gain of nuclear signal | disappearance of nuclear DNMT1 foci | increased nuclear localization
